Literature values in patent publication US20090312295A1, “Second line treatment of metastatic hormone refractory prostate cancer using satraplatin” (priority 2006, published 2009).

What was measured:
LNCaP cells = conditions: 42 hours, 12 μM satraplatin or 0.7 μM JM-118
[1] = sequential schedules
[2] = system: prostate cancer cell lines PC-3, DU 145 and LNCaP
[3] = system: human tumor cell lines with different sensitivities to cisplatin
[4] = system: hormone refractory prostate cancer; conditions: symptomatic patients; mitoxantrone combined with prednisone versus prednisone alone
[5] = system: hormone refractory carcinoma of the prostate
[6] = system: hormone refractory prostate cancer; conditions: estramustine combined with either paclitaxel or docetaxel
[7] = system: hormone refractory prostate cancer; conditions: first-line HRPC
[8] = system: ovarian cancer carcinoma cell lines; conditions: panel of ovarian carcinoma cell lines
[9] = system: hormone refractory prostate cancer; conditions: 120 mg/m^2 per day for 5 days every 4 weeks, single agent
[10] = system: H460 human non-small cell lung carcinoma (NSCLC); conditions: H460 xenografted in nude mice
[11] = system: mismatch repair-proficient and mismatch repair-deficient cell lines
[12] = system: prostate carcinoma models; conditions: in vivo
[13] = system: Schizosaccharomyces pombe; conditions: panel of 23 yeast strains, mutants in genes affecting radiation response
[14] = system: human ovarian carcinoma xenograft models; conditions: oral versus intravenous cisplatin and carboplatin

N.NC1CCCCC1.[Cl-].[Cl-].[Pt+2] [JM118, reference compound]
PSA mRNA transcription (LNCaP cells): 90 % of control
cell number (LNCaP cells): 61 % of control
secreted PSA protein level (LNCaP cells): 61 % of control
in vitro anticancer activity in combination with erlotinib, paclitaxel or 5-FU [1]: synergistic in vitro anticancer activity
result of treatment of prostate cancer cells [2]: tumor cell kill
circumvention of resistance to cisplatin [3]: can partially circumvent intrinsic and acquired resistance to cisplatin

O=C1c2c(O)ccc(O)c2C(=O)c2c(NCCNCCO)ccc(NCCNCCO)c21 [Mitoxantrone]
palliative response using pain response criteria [4]: 29%

N.N.[Cl][Pt][Cl] [cisplatin]
response rates to single agent ([5]; measurable disease, several trials): generally low or poor
efficacy in patients with metastatic prostatic carcinoma ([5]; phase II trial (Qazi & Khandekar)): not effective

C[C@]12CC[C@@H]3c4ccc(OC(=O)N(CCCl)CCCl)cc4CC[C@H]3[C@@H]1CC[C@@H]2O [estramustine, Estramustine]
patients with decrease of >50% in serum PSA levels [6]: > 50%
tolerability [6]: well tolerated

C[C@]12C=CC(=O)C=C1CC[C@@H]1[C@@H]2C(=O)C[C@@]2(C)[C@H]1CC[C@]2(O)C(=O)CO [prednisone alone, prednisone]
palliative response using pain response criteria [4]: 12%
Progression-free survival [7]: 2.5 months
patients with >50% decrease in prostate specific antigen (PSA) [7]: 8.7%
Median overall survival ([7]; 50 randomized patients): 11.9 months

CC(=O)[O][Pt]([NH2])([Cl])([Cl])([NH]C1CCCCC1)[O]C(C)=O [satraplatin, bis(acetato) ammine dichloro (cyclohexylamine) platinum (IV)]
PSA mRNA transcription (LNCaP cells): 90 % of control
cell number (LNCaP cells): 56 % of control
secreted PSA protein level (LNCaP cells): 58 % of control
result of treatment of prostate cancer cells [2]: tumor cell kill
sensitivity of cell lines to satraplatin ([2]; androgen-insensitive PC-3 and DU 145 versus androgen-sensitive LNCaP): more sensitive
cytotoxicity compared with cisplatin [8]: significantly more cytotoxic than cisplatin
activity in HRPC [9]: moderate activity
toxicity [9]: significant treatment-related toxicities
antitumor activity of combination with docetaxel [10]: synergistic antitumor activity
antitumor activity of combination with paclitaxel [10]: antitumor activity
circumvention of resistance to cisplatin [3]: can partially circumvent intrinsic and acquired resistance to cisplatin
platinum-DNA adduct levels compared to cisplatin ([3]; equimolar basis): lower levels of platinum-DNA adducts
radiopotentiation (human lung cancer cells): can potentiate the effects of radiation
sensitivity, mismatch repair-proficient versus -deficient cell lines [11]: no difference in sensitivity
antitumor activity of combination with docetaxel [12]: synergistic antitumor activity
antitumor activity of combination with paclitaxel [12]: synergistic antitumor activity
change in sensitivity of mutants [13]: none of the mutants demonstrated an appreciable change in sensitivity
efficacy of orally administered satraplatin [14]: comparable to that of cisplatin and carboplatin administered intravenously
